Laboratory results reported in article PMC12064818, “A general assay platform to study protein pharmacology using ligand-dependent structural dynamics” (Nature Communications, 2025).
Values joined by “and” are separate entries in the source; they are usually repeats but may differ in a detail not shown here. Equal entries are not always repeated. Where two headings read alike, the source gives them in different places.

Legend:
[1] = biological target: T1, PKA-N-HiBiT (Homo sapiens, UniProt P17612); assay: PKA peptide phosphorylation, Kinase-Glo Plus (KGP) assay, PKA-N-HiBiT; type: biochemical; set-up: containing amino acids Gly2-Phe351; His10 (N); made in house; host or cells: E. coli BL21(DE3); settings: KGP Rep 1
Description: Kinase activity was measured by ATP depletion using the Kinase-Glo Plus (KGP) assay kit (Promega) in 1536-well plate format. […] Controls were added with a Mosquito dispenser (STP LabTech) while compounds were transferred with a pintool to each plate as described in Supplementary Data 8 and incubated for 30 min at ambient temperature. […] Following a 10 min incubation, KGP luminescence was measured with a ViewLux plate reader with 1 sec exposure, with medium to high gain setting, slow speed and 2x binning. Data were normalized to the average of no enzyme control column as 100% kinase inhibition and DMSO control column as 100% phosphorylation reaction progress. See Supplementary Table 5 for additional details.
Protocol for Abelson kinase (ABL1) and protein kinase A (PKA) peptide phosphorylation assays
Supplementary Table 5: Protocol for Abelson kinase (ABL1) and protein kinase A (PKA) peptide phosphorylation assays Sequence Param eter Value Description
3 Incubation 30 m in Incubate enzym e + com pounds at am bient tem p for 30 m in, protected from light […]
protocol; dispensed with BioRaptr 2

[2] = test system: PKA; settings: annotation yes/no for kinase library compound; source not given; cited from earlier work
[3] = biological target: T1, PKA-N-HiBiT; assay: SDR assay, PKA-N-HiBiT; settings: for SDR Ave Max Response: PKA-N-HiBiT qHTS, SDR assay, average maximal response
[4] = biological target: T2, ABL1-N-HiBiT kinase domain (Homo sapiens, UniProt P00519); assay: SDR assay, ABL1-N-HiBiT; settings: for SDR Ave Max Response: average maximal SDR response; for SDR output: ABL1-N-HiBiT, Log [Compound]
T2 sequence (P00519 233-500): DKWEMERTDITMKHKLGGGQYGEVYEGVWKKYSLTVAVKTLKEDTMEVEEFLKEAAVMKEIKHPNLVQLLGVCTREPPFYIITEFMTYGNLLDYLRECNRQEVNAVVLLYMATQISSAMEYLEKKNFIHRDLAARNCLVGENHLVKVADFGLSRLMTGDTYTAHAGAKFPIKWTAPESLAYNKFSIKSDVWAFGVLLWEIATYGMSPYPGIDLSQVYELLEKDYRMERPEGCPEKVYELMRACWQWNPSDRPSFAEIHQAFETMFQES

[5] = test system: ABL1; settings: cited from earlier work
[6] = biological target: T2, ABL1-N-HiBiT kinase domain; assay: ABL1 peptide phosphorylation, Kinase-Glo Plus (KGP) assay, ABL1-N-HiBiT; type: biochemical; set-up: containing amino acid residues Asp233-Ser500; His10 (N); made in house; host or cells: E. coli BL21(DE3)
[7] = biological target: T3, ABL1-C-HiBiT kinase domain (Homo sapiens, UniProt P00519); assay: SDR assay, ABL1-C-HiBiT; settings: for SDR output: ABL1-C-HiBiT, Log [Compound]
T3 sequence (P00519 233-500): T2 sequence (P00519 233-500)

[8] = biological target: T4, DHFR-C-HiBiT (Homo sapiens, UniProt P00374); assay: Dihydrofolate reductase enzymatic absorbance assay; type: biochemical; set-up: His10 (C); made in house; host or cells: E. coli
T4 sequence (P00374 2-187): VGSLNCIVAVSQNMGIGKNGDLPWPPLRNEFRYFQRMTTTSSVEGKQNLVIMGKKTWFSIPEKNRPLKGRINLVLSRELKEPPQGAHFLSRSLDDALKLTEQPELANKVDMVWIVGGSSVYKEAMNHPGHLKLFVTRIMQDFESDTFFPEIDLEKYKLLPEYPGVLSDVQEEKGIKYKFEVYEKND
Description: To accommodate consistent compound addition used in this study, DHFR enzymatic activity[72],[73] was measured in a 1536-well miniaturized assay adapted from the Sigma-Aldrich dihydrofolate reductase assay (Cat # CS0340). […] Compounds and controls were added as above to each plate as described in Supplementary Data 8. DHFR-C-HiBiT was incubated with compounds for 20 min at ambient temperature. […] Then 2 µL of dihydrofolate (DHF, Sigma-Aldrich, Cat # D7006) substrate, freshly prepared according to manufacturer’s protocol and diluted in 1X assay kit buffer, was dispensed into each microplate well with a BioRaptr 2 for a final assay DHF concentration of 100 μM. […] See Supplementary Table 9 for additional details.
Supplementary Table 9. Protocol for Dihydrofolate reductase (DHFR) enzymatic absorbance […]
Supplementary Table 9: Protocol for Dihydrofolate reductase (DHFR) enzym atic absorbance assay Sequence Param eter ValueDescription
No enzym e control (colum n 1) and enzym e solution (100 nM DHFR-C-HiBiT final assay […]
(Aurora), dispensed with BioRaptr 2 […]
com pounds transferred to respective colum ns with Pintool
2b Test Com pounds 23 nLfinal concentration range) in colum ns 5-48; com pounds transferred to respective wells with […]
3 Incubation 20 m inIncubate enzym e + com pounds at am bient tem p for 20 m in, protected from light 5 Reagent 2 µLSubstrate solution; dihydrofolic acid (100 µM final concentration) in 1X assay buffer; dispensed with BioRaptr 2
6 Incubation 10 m inAm bient tem perature, protected from light
Dihydrofolic acid substrate solution: 1X assay buffer (Sigm a-Aldrich, Cat # A5603); 300 µM dihydrofolic acid (100 µM 5 final) (Sigm a-Aldrich, Cat # D7006) prepared fresh according to m anufacturer’s protocol. Solution filtered through 0.22 µm syringe filter prior to dispense.

[9] = biological target: T4, DHFR-C-HiBiT; assay: SDR assay, purified DHFR-C-HiBiT; settings: for enhanced sensitivity in the SDR assay format versus functional DHFR assay: DHFR-C-HiBiT 0.5 nM, 5 μM NADPH (SDR) vs 100 nM, 75 μM NADPH (functional)
[10] = biological target: T5, endogenous DHFR-C-HiBiT in HEK293 cell lysate (Homo sapiens, UniProt P00374); assay: SDR assay, cellular lysate from DHFR C-terminus HiBiT gene edited HEK293 cells; type: binding
T5 construct: from a mammalian cellular lysate containing an endogenous α-peptide tagged protein, obtained using CRISPR/Cas9-mediated homologous recombination; host or cells: HEK293 constitutively expressing S. pyogenes Cas9, CRISPR/HDR-edited monoclonal line; NP-40 lysate used at 1:100
T5 sequence (P00374 1-187): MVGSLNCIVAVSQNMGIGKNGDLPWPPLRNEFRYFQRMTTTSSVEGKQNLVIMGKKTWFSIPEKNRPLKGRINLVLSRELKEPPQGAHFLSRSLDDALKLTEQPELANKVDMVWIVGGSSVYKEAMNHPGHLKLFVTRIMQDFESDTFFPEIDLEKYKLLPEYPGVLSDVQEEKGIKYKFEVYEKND
Description: A HEK293 cell line constitutively expressing S. pyogenes Cas9 (GeneCopoeia, Cat # SL553) was used to generate the C-terminal edit of the DHFR gene (DHFR-C-HiBiT) applying general methodology previously described[24],[52],[53]. The DHFR 3’-gene sequence surrounding the stop codon (underlined), […] […], used to generate the CRISPR-Cas9 crRNA sequence, […], was accomplished with IDT software (Custom Alt-R CRISPR-Cas9 guide RNA).
For lysate preparation, the DHFR-C-HiBiT gene edited HEK293 monoclonal cell line was grown in a T75 flask (DMEM, 10% FBS, 1% P/S) to confluence. […] The cell pellet was lysed by adding 500 μL ice-cold NP-40 lysis buffer (ThermoFisher Scientific, Cat # FNN0021) containing 5 µL 100x protease inhibitor cocktail in DMSO (Sigma Aldrich, Cat # P8340-1mL) incubated on a rocker at 4 °C for 1 h (protected from light), centrifuged at 15,000 g for 10 min at 4 °C, after which supernatant was transferred to a 1.5 mL Eppendorf tube, and frozen at −80 °C.
Protein-HiBiT targets were expressed and purified to various levels of homogeneity and optimized at indicated concentrations, not necessarily the lowest possible concentrations, to produce consistent luminescence with statistically significant signal above no protein background control in target specific assay buffer (see Supplementary Table 11). Four μL/well buffer control (column 1) and NLuc or HiBiT tagged proteins (columns 2-48) were dispensed into 1536-well Greiner Bio-One white, high solid base, medium bind plates with a BioRaptr 2. Compounds and controls were added to the microtiter plates as described in Supplementary Data 8, then incubated and protected from light for 30 min at ambient temperature. A modified dispensing protocol was developed for aqueous ligands that were unable to be transferred by pintool (see Supplementary Table 10 aqueous ligand dispense section). The substrate solution was prepared according to manufacturer’s protocol where ω-fragment (LgBiT) was added at 1:100 dilution and NLuc substrate (furimazine) was prepared at 1:50 dilution in Nano-Glo HiBiT lytic buffer (Promega, Cat # N3040). This substrate solution, 3 μL/well, was added with a BioRaptr 2 and assay plates were protected from light and incubated for 10 min at ambient temperature. NLuc luminescence was measured on a ViewLux CCD plate reader with optimized reader settings to each protein target (see Supplementary Tables 10, 11 and Supplementary Fig. 14 for additional details).

Cn1c(=O)c2c(ncn2C)n(C)c1=O [Caffeine]
Efficacy [1]: -14.65
Hill Coef [1]: 2.85
Max Resp [1]: 7.79
CC-v2 ([1]; curve class): 4
Annotated PKA activity [2]: no
SDR Ave Max Response [3]: -17.81
SDR Ave Max Response ([4]; ABL1-N-HiBiT qHTS): 3.59
Annotated ABL1 activity [5]: no

O=C(NCCO)c1cccc(-c2cc(Nc3ccc(OC(F)(F)F)cc3)ncn2)c1 [GNF5]
Effect on enzyme catalysis ([6]; Log [Compound], M -4.51): 1.2 and 2.4
SDR output ([4]; M -4.51): -1.2
SDR output ([4]; M -8.12): 1.9 and 2.5
SDR output ([4]; M -8.42): 2.5
SDR output ([4]; M -8.72): 2.7 and 1.9
SDR output ([7]; M -4.20): 11.5 and 10.7
SDR output ([7]; M -5.41): 4.5 and 3.0
SDR output ([7]; M -5.71): 0.159 and 0.3
SDR output ([7]; M -7.21): 1.8 and 1.6
SDR output ([7]; M -7.52): 3.3 and 3.0
SDR output ([7]; M -7.82): 5.4 and 5.3
SDR output ([7]; M -8.12): 3.3 and 3.7
SDR output ([7]; M -8.42): 7.4 and 4.5

Nc1nc2[nH]cc(CCc3ccc(C(=O)N[C@@H](CCC(=O)O)C(=O)O)cc3)c2c(=O)[nH]1 [pemetrexed]
DHFR affinity in functional assay (in words) ([8]; DHFR-C-HiBiT 100 nM, 75 μM NADPH): poor DHFR affinity
DHFR binding in SDR assay (in words) ([9]; purified DHFR-C-HiBiT): poor DHFR affinity

C#CCC(Cc1cnc2nc(N)nc(N)c2n1)c1ccc(C(=O)N[C@@H](CCC(=O)O)C(=O)O)cc1 (stereo partly drawn) [pralatrexate]
IC50 ([8]; functional DHFR-C-HiBiT assay (100 nM), read-out: pIC50 (DHFR Enz Assay), Mean (converted)): 107 nM
EC50 ([10]; 1:100 lysate (~0.2 nM) with 1 mM NADPH, read-out: pSDR50 (lysate + 1 mM NADPH), Mean (converted)): 0.316 nM
EC50 ([10]; 1:100 lysate (~0.2 nM) without added NADPH, read-out: pSDR50 (lysate), Mean (converted)): 3.16 nM
EC50 [9]: 1.02 nM
enhanced sensitivity in the SDR assay format versus functional DHFR assay [9]: ~ 100 fold

Nc1nc(N)c2nc(CNc3ccc(C(=O)N[C@@H](CCC(=O)O)C(=O)O)cc3)cnc2n1 [aminopterin]
enhanced sensitivity in the SDR assay format versus functional DHFR assay [9]: ~ 100 fold

COc1ccccc1-c1c[nH]c2ncc(-c3cncc(C(=O)N(C)C)c3)cc12 [PPY A]
Annotated PKA activity [2]: no
SDR Ave Max Response [3]: 11.97
ABL1 KGP pIC50 ([6]; ABL1, Kinase-Glo Plus (KGP), heatmap data, 128 kinase inhibitors): 7.53
IC50 ([6]; ABL1-N-HiBiT qHTS, average, unit inferred, read-out: ABL1 KGP Ave IC50): 34.1 nM
ABL1 SDR pSDR50 ([4]; ABL1, SDR, heatmap data, 128 kinase inhibitors): 8.52
SDR Ave Max Response ([4]; ABL1-N-HiBiT qHTS): 88.01
EC50 ([4]; read-out: SDR Ave SDR50, ABL1-N-HiBiT qHTS, average, unit inferred): 3.04 nM
Annotated ABL1 activity [5]: yes

O=C(NCCO)c1cccc(-c2cc(Nc3ccc(OC(F)(F)F)cc3)ncn2)c1 [GNF-5, reference compound]
Annotated PKA activity [2]: no
Emax ([3]; read-out: SDR Ave Max Response): 1.25%
detection in functional enzymatic ABL1 kinase assay (in words) ([6]; KGP assay): neither was identified
detection in ABL1-N-HiBiT SDR assay (in words) [4]: neither was identified
Emax ([4]; read-out: SDR Ave Max Response): 13.8%
detection in ABL1-C-HiBiT SDR assay (in words) [7]: beginning to detect

COc1cc(NCc2ccc3nc(N)nc(N)c3c2C)cc(OC)c1OC [trimetrexate]
enhanced sensitivity in the SDR assay format versus functional DHFR assay [9]: ~ 100 fold

CN(Cc1cnc2nc(N)nc(N)c2n1)c1ccc(C(=O)NC(CC(F)C(=O)O)C(=O)O)cc1 (stereo not drawn) [γ-fluoromethotrexate]
enhanced sensitivity in the SDR assay format versus functional DHFR assay [9]: ~ 100 fold
